Experimental findings from PMC12164026, “Plant-derived nodule-specific cysteine-rich peptides as potent antifungal agents against Cryptococcus neoformans: mechanisms of action, chimeric peptide enhancement, and immunomodulatory effects” (Current Research in Microbial Sciences, 2025) are described below.

Peptide text beside a SMILES is read from it.

One assay relates to J774.2 mouse macrophages. Nature of the assay: Phagocytosis of peptide-treated C. neoformans cells by macrophages, imaging flow cytometry. Type of assay: cell-based. The settings on record: yeast cells pre-treated with 3.12 µM peptide for 15 min, 5:1 yeast-to-macrophage ratio. The protocol:
C. neoformans was cultivated for 16 h at 30 °C, collected by centrifugation (5000 g, 5 min), and washed twice with sterile distilled water and once with PBS. […] After 15 min of incubation at 30 °C, the peptide-containing solution was removed by centrifugation, and the C. neoformans cells were washed with PBS and re-suspended in 100 µL PBS. Untreated C. neoformans cells served as controls.
To label C. neoformans cells, the suspension was supplemented with 11 µL of 1 M Na₂CO₃ (pH 10) and 2 µL of Alexa Fluor 488-labelled-concanavalin (Invitrogen, Waltham, MA, US), followed by incubation at room temperature for 30 min, protected from light. After PBS washing, the cell density was determined using a Bürker chamber and adjusted to the required concentration. […]
Following incubation, cells from each technical replicate were collected by centrifugation (200 g, 10 min), washed once with PBS, and re-suspended in 100 µL PBS buffer for detection. A random selection of 1000 macrophages was evaluated in each experimental sample, and the proportion of macrophages harboring fluorescently labelled C. neoformans cells was quantified utilizing imaging flow cytometry (FlowSight®, Amnis-EMD Millipore) equipped with a 488-nm excitation laser, with data analysis conducted through the IDEAS software platform.
On the technique in general: A flow cytometer gives signals particle by particle.

In assay [1] the test system is C. neoformans IFM 5844 protoplasts. The assay can be described thus: Susceptibility of protoplasts to peptide, CFU counts. Type of assay: cell-based, Cryptococcus neoformans. The settings on record: 30 min, YNB + 0.8 M sorbitol. The method, then:
The C. neoformans IFM 5844 strain was grown in YPD nutrient solution at 30 °C for 12 h by vigorous shaking until the exponential phase was reached (about 5 × 10^7 cells/mL).
For protoplast preparation cells were harvested by centrifugation and re-suspended in 20 mL of pre-treatment buffer (10 mM Tris–HCl, pH 9; 5 mM EDTA-Na2) supplemented with 0.1 % 2-mercaptoethanol. After incubation at room temperature for 20 min, the samples were centrifuged and the cell pellet was washed with 0.8 M sorbitol solution. The pellet was then re-suspended in 20 mL of protoplasting solution (prepared by dissolving 1 g lyophilised Helix pomatia digestive enzyme in 100 mL sorbitol) and the suspension was incubated for 60 min at room temperature. Protoplast formation was monitored every 30 min under bright field microscope. Once formed, protoplasts were collected by centrifugation, washed twice with 0.8 M sorbitol, and their concentration was determined in a Bürker chamber.
To assess peptide susceptibility, 2 × 10^6 protoplasts and the same number of intact cells were treated separately with X1-NCR247C peptide at 0.78 or 0.39 µM in YNB supplemented with 0.8 M sorbitol for 30 min at 30 °C. […] Plates were incubated for 3 days at 30 °C, after which colony forming units were counted to determine the survival rate of peptide-treated cells and protoplasts.

As for `CSCC[C@H](NC(=O)[C@H](CCCCN)NC(=O)[C@H](Cc1ccccc1)NC(=O)[C@H](CC(N)=O)NC(=O)[C@H](CC(C)C)NC(=O)[C@@H]1CCCN1C(=O)[C@@H](N)CCCNC(=N)N)C(=O)N[C@@H](CC(C)C)C(=O)N[C@@H](CCCNC(=N)N)C(=O)N[C@@H](Cc1ccccc1)C(=O)N[C@@H](Cc1c[nH]c2ccccc12)C(=O)NCC(=O)N[C@@H](CCC(N)=O)C(=O)N[C@@H](CCC(N)=O)C(=O)N[C@@H](CCC(N)=O)C(=O)N[C@@H](CS)C(=O)N[C@@H](CCCNC(=N)N)C(=O)N[C@@H](CCCNC(=N)N)C(=O)N1CCC[C@H]1C(=O)N[C@@H](CC(C)C)C(=O)N[C@@H](Cc1ccc(O)cc1)C(=O)N[C@@H](CS)C(=O)N[C@@H](CCCNC(=N)N)C(=O)N[C@@H](CCCNC(=N)N)C(=O)N[C@@H](CCCNC(=N)N)C(N)=O` [X1-NCR247C] (H-RPLNFKMLRFWGQQQCRRPLYCRRR-NH2; N-terminus assumed), the “percentage of phagocytic macrophages” value in the assay with J774.2 mouse macrophages (30 min post-infection, untreated control 5.12 %) was determined as 7.95%; in the assay with J774.2 mouse macrophages (60 min post-infection, untreated control 6.95 %), 33.95%. In addition, the “CFU count reduction relative to untreated control” value turned out to be 43% in assay [1] (0.39 µM) and 83% in assay [1] (0.78 µM).
